ChEMBL document CHEMBL2157957, “Strategies to mitigate the bioactivation of 2-anilino-7-aryl-pyrrolo[2,1-f][1,2,4]triazines: identification of orally bioavailable, efficacious ALK inhibitors” (J Med Chem, 2012)

Legend:
[1] = Ratio of tumor concentration at 12 hrs to plasma concentration at 12 hrs in human SUP-M2 cells xenografted SCID mouse at 30 mg/kg, po administered as single dose; assay type: ADME, organism-based; parameters: dose 30 mg/kg, route oral
[2] = Half life in SCID mouse at 10 mg/kg, po; assay type: ADME, organism-based; parameters: dose 10 mg/kg, route oral; conditions: in vivo
[3] = Tmax in SCID mouse at 10 mg/kg, po; assay type: ADME, organism-based; parameters: dose 10 mg/kg, route oral; conditions: in vivo
[4] = Half life in monkey liver microsomes at 0.5 uM preincubated for 10 mins before NADPH and UDPGA challenge; assay type: ADME, Macaca mulatta, Microsome; conditions: rhesus monkey
Insulin receptor = Insulin receptor (Homo sapiens, UniProt P06213); assay: Inhibition of IR
[5] = Oral bioavailability in Sprague-Dawley rat at 5 mg/kg; assay type: ADME, organism-based; conditions: in vivo
[6] = Cmax in Sprague-Dawley rat at 5 mg/kg, po; assay type: ADME, organism-based; parameters: dose 5 mg/kg, route oral; conditions: in vivo
[7] = AUC (0 to t) in Sprague-Dawley rat at 1 mg/kg, iv; assay type: ADME, organism-based; parameters: dose 1 mg/kg, route intravenous; conditions: plasma
Mus musculus [8] = assay: Toxicity in human SUP-M2 cells xenografted SCID mouse assessed as incidence of overt toxicity at 55 mg/kg, po BID measured 12 days post dose; assay type: organism-based; parameters: dose 55 mg/kg, route oral; conditions: in vivo, 288 h
[9] = biological target: NPM/ALK (Nucleophosmin/ALK tyrosine kinase receptor) (Homo sapiens, UniProt Q9UM73); assay: Inhibition of human NPM-ALK phosphorylation using 4-MeUP substrate by cell based assay
[10] = Cmax in SCID mouse at 10 mg/kg, po; assay type: ADME, organism-based; parameters: dose 10 mg/kg, route oral; conditions: in vivo
[11] = Oral bioavailability in SCID mouse at 10 mg/kg; assay type: ADME, organism-based; conditions: in vivo
[12] = AUC (0 to t) in SCID mouse at 1 mg/kg, iv; assay type: ADME, organism-based; parameters: dose 1 mg/kg, route intravenous; conditions: plasma
[13] = Half life in CD1 mouse liver microsomes at 0.5 uM preincubated for 10 mins before NADPH and UDPGA challenge; assay type: ADME, Microsome
[14] = Volume of distribution in SCID mouse at 1 mg/kg, iv; assay type: ADME, organism-based; parameters: dose 1 mg/kg, route intravenous; conditions: in vivo
[15] = Volume of distribution in Sprague-Dawley rat at 1 mg/kg, iv; assay type: ADME, organism-based; parameters: dose 1 mg/kg, route intravenous; conditions: in vivo
Mus musculus [16] = assay: Toxicity in human SUP-M2 cells xenografted SCID mouse assessed as body weight loss at 30 mg/kg, po BID measured 12 days post dose; assay type: organism-based; parameters: dose 30 mg/kg, route oral; conditions: in vivo, 288 h
[17] = Tmax in Sprague-Dawley rat at 5 mg/kg, po; assay type: ADME, organism-based; parameters: dose 5 mg/kg, route oral; conditions: in vivo
[18] = Plasma concentration in human SUP-M2 cells xenografted SCID mouse at 30 mg/kg, po administered as single dose measured 12 hrs post dose; assay type: ADME, organism-based; parameters: dose 30 mg/kg, route oral
[19] = Clearance in SCID mouse at 1 mg/kg, iv; assay type: ADME, organism-based; parameters: dose 1 mg/kg, route intravenous; conditions: in vivo
[20] = Half life in Sprague-Dawley rat at 1 mg/kg, iv; assay type: ADME, organism-based; parameters: dose 1 mg/kg, route intravenous; conditions: in vivo
[21] = AUC (0 to t) in SCID mouse at 10 mg/kg, po; assay type: ADME, organism-based; parameters: dose 10 mg/kg, route oral; conditions: plasma
Plasma = assay: Ratio of plasma concentration at 12 hrs to plasma concentration at 24 hrs in human SUP-M2 cells xenografted SCID mouse at 30 mg/kg, po administered as single dose; assay type: ADME, organism-based; parameters: dose 30 mg/kg, route oral; conditions: in vivo
[22] = Half life in SCID mouse at 1 mg/kg, iv; assay type: ADME, organism-based; parameters: dose 1 mg/kg, route intravenous; conditions: in vivo
Mus musculus [23] = assay: Toxicity in human SUP-M2 cells xenografted SCID mouse assessed as incidence of overt toxicity at 30 mg/kg, po BID measured 12 days post dose; assay type: organism-based; parameters: dose 30 mg/kg, route oral; conditions: in vivo, 288 h
[24] = Half life in human liver microsomes at 0.5 uM preincubated for 10 mins before NADPH and UDPGA challenge; assay type: ADME, Microsome
[25] = Clearance in Sprague-Dawley rat at 1 mg/kg, iv; assay type: ADME, organism-based; parameters: dose 1 mg/kg, route intravenous; conditions: in vivo
Mus musculus [26] = assay: Inhibition of NPM-ALK phosphorylation in human SUP-M2 cells xenografted in SCID mouse at 30 mg/kg, po administered as single dose measured 12 hrs post dose; assay type: functional; conditions: SUP-M2, 12 h
Mus musculus [27] = assay: Toxicity in human SUP-M2 cells xenografted SCID mouse assessed as body weight loss at 55 mg/kg, po BID measured 12 days post dose; assay type: organism-based; parameters: dose 55 mg/kg, route oral; conditions: in vivo, 288 h
[28] = biological target: ALK tyrosine kinase receptor (Homo sapiens, UniProt Q9UM73); assay: Inhibition of GST-tagged human ALK cytoplasmic domain (1058-1620) expressed in Sf21 insect cells using GST-tagged human recombinant PLC-gamma/substrate by ELISA
[29] = Half life in Sprague-Dawley rat liver microsomes at 0.5 uM preincubated for 10 mins before NADPH and UDPGA challenge; assay type: ADME, Microsome
[30] = AUC (0 to t) in Sprague-Dawley rat at 5 mg/kg, po; assay type: ADME, organism-based; parameters: dose 5 mg/kg, route oral; conditions: plasma

Chain of Insulin receptor (P06213 28-758 limits assumed): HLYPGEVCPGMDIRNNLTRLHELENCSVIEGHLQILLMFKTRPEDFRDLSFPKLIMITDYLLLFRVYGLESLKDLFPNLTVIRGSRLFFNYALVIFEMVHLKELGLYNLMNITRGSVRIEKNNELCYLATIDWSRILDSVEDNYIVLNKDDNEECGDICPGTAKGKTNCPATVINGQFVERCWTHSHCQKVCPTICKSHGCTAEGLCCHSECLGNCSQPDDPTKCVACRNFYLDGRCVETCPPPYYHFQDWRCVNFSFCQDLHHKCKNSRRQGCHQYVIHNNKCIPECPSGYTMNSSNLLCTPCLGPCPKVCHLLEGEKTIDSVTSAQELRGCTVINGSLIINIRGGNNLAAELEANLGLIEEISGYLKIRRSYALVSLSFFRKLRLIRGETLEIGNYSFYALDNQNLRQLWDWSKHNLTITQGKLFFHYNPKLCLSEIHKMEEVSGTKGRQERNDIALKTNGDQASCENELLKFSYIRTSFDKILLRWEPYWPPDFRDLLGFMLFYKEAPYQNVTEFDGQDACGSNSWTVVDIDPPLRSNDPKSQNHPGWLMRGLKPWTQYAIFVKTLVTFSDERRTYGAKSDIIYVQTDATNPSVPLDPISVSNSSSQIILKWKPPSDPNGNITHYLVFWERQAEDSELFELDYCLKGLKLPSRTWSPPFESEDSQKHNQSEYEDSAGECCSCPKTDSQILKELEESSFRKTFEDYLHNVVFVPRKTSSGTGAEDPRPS
Chain of Insulin receptor (P06213 763-1382 limits assumed): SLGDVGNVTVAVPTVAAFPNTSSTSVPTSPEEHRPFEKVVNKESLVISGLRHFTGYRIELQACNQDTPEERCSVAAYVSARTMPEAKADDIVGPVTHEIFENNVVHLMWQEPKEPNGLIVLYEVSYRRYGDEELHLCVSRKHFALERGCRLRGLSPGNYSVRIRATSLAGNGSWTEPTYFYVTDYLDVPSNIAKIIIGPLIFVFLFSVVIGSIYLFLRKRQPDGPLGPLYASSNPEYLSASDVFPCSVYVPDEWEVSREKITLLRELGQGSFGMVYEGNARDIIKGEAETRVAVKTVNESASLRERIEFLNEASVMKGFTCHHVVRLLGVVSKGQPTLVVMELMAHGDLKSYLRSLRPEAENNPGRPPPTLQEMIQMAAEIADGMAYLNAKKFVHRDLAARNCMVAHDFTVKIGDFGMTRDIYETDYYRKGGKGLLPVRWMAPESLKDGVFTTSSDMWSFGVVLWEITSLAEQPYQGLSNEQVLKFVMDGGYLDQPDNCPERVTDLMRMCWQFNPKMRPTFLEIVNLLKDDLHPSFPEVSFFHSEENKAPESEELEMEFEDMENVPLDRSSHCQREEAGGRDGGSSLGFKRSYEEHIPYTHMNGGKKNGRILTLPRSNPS
Chain of ALK tyrosine kinase receptor (Q9UM73 whole entry, the tested form may be a part): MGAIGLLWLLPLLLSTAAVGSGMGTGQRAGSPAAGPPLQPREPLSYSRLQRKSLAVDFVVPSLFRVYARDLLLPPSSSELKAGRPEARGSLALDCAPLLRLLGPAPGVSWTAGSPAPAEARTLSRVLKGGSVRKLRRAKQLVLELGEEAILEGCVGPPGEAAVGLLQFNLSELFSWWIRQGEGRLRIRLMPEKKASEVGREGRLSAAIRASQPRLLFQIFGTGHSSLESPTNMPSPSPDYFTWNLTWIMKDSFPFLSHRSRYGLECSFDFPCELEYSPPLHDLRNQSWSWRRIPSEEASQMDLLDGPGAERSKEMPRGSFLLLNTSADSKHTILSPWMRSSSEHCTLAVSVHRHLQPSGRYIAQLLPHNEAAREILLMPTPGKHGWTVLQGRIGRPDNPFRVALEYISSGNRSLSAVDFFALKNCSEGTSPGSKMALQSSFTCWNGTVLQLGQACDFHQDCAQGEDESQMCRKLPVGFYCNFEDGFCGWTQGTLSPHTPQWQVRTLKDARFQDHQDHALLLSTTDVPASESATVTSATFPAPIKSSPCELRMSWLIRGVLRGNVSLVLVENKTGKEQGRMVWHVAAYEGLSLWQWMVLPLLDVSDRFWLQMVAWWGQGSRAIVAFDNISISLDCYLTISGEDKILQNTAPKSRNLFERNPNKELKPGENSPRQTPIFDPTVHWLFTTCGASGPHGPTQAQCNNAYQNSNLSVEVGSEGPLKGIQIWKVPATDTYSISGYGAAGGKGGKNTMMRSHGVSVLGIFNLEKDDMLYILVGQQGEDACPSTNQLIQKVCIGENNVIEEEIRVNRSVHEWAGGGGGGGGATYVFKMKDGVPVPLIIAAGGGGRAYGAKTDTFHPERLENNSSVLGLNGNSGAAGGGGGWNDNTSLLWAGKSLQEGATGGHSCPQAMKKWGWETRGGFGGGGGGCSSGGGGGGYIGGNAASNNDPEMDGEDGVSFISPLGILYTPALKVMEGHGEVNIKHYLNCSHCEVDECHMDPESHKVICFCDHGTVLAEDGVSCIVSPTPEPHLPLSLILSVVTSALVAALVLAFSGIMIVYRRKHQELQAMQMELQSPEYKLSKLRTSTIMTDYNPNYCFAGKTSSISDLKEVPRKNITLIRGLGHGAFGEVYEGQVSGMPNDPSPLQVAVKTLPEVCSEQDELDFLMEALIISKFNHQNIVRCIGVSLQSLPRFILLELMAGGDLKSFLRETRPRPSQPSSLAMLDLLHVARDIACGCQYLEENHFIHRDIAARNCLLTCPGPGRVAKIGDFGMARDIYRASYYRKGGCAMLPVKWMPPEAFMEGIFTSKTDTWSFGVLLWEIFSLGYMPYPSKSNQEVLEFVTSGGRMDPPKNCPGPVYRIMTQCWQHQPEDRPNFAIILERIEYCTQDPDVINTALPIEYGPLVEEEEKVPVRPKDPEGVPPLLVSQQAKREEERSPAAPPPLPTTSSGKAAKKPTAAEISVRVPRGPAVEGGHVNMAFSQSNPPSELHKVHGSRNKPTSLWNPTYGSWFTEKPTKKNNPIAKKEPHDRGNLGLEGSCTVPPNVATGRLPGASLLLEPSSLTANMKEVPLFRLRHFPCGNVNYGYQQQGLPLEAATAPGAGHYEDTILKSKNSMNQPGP
Chain of NPM/ALK (Nucleophosmin/ALK tyrosine kinase receptor) (Q9UM73 whole entry): as the sequence (Q9UM73 whole entry, the tested form may be a part) above
Chain of NPM/ALK (Nucleophosmin/ALK tyrosine kinase receptor) (P06748 whole entry, further chain): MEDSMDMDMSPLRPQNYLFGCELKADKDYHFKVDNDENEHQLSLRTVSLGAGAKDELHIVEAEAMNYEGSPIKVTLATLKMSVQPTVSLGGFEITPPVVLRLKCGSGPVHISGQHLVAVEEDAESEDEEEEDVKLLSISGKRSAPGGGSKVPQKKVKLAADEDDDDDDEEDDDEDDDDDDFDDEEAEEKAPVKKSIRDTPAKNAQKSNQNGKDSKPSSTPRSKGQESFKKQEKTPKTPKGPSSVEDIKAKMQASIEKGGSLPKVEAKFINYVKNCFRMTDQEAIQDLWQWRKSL

Work on `COc1cc(C2CCN(CC(N)=O)CC2)ccc1Nc1ncc2ccc(-c3ccccc3OC)n2n1` yielded a Kp at 12 h [1] of 2, a half-life [2] of 4.4 h and a Tmax [3] of 2 h. The half-life at 0.5 µM [4] was > 0.667 h, the IC50 (Insulin receptor) was 222 nM and the bioavailability [5] was 43%. For the same molecule, the Cmax [6] was 392 ng/mL, the AUC(0-t) [7] was 1110 ng·h/mL and the Activity (Mus musculus [8]) was “Non-toxic”. It also gave an IC50 [9] of 100 nM, a Cmax [10] of 3470 ng/mL and a bioavailability [11] of 56%. For the same molecule, the AUC(0-t) [12] was 7550 ng·h/mL, the half-life at 0.5 µM [13] was > 0.667 h and the Vd [14] was 1.1 L/kg. For the same molecule, the Vd [15] was 3.5 L/kg, the Activity (Mus musculus [16]) was “Non-toxic” and the Tmax [17] was 6 h. It also gave a concentration at 12 h [18] of 6 µM, a clearance [19] of 2 mL/min/kg and a half-life [20] of 3.4 h. It also gave an AUC(0-t) [21] of 42500 ng·h/mL, a Ratio (Plasma) of 7 and a half-life [22] of 6 h. For the same molecule, the Activity (Mus musculus [23]) was “Non-toxic”, the half-life at 0.5 µM [24] was > 0.667 h and the clearance [25] was 12 mL/min/kg. For the same molecule, the inhibition in vivo at 30 mg/kg (Mus musculus [26]) was 80%, the Activity (Mus musculus [27]) was “Non-toxic” and the IC50 [28] was 6 nM. The half-life at 0.5 µM [29] was > 0.667 h and the AUC(0-t) [30] was 1760 ng·h/mL.
